Data taken from ChEMBL document CHEMBL1151629, “Lariciresinol derivatives from Turrea nilotica and Monechma ciliatum” (1984).

Test system: KB
Assay: Cytotoxicity against human KB cells
Assay type: functional
Conditions: read-out: ED50 (the source's name)

Structure (SMILES): COc1cc(C[C@H]2CO[C@H](c3ccc(OC)c(OC)c3)[C@H]2CO)ccc1O
- EC50: > 10 µg/mL
